Tests used:
OVK18 = experiment: Cell Titer Glo proliferation assay; format: cell-based, human; details: OVK18, wild type KRAS
From the text: (§1) Cell Lines and Culture. Human cancer cell lines, were obtained from American Type Culture Collection (ATCC, Manassas, Va.), or the following additional indicated sources, and cultured in media as described. Tumor types are also indicated: H295R (adrenocortical carcinoma; ATCC), NCI-[…], NCI-[…], SW1573 (NSCLC; ATCC), […], BxPC3 (pancreatic; ATCC), OVCAR5 (ovarian; NCI), MDAH-2774 (ovarian; ATCC), Igrov1 (ovarian; NCI), GEO (colon; Roswell Park Cancer Institute (RPCC)), HT-29 (colon; ATCC), RKO (colon; ATCC), […], 8226 (myeloma; ATCC), H929 (myeloma; ATCC), U266 (myeloma; ATCC), SKES1 (Ewings sarcoma; ATCC), RDES (Ewings sarcoma; ATCC), RD (rhabdomyosarcoma; ATCC), DU4475 (breast; ATCC), SKNAS (neuroblastoma; ATCC), 2650 (nasal SCC; ATCC), OVCAR4 (ovarian; NCI), A673 (Ewings sarcoma; ATCC), BT474 (breast; ATCC), 1386 (oral SCC; MSKCC, NY), 1186 (SCCHN; MSKCC, NY), Colo205 (colon; ATCC), HCT-15 (colon; ATCC), Fadu (oral SCC; ATCC), SKBR3 (breast; ATCC), 1483 (HNSCC; MSKCC, NY), HSC-2 (HNSCC; RIKEN BioResource Center, Tsukuba, Ibaraki, 305-0074, Japan), SKOV-3 (ovarian; ATCC), OVCAR-3 (ovarian; NCI), OVCAR-8 (ovarian; NCI), CaOV3 (ovarian; ATCC). […] The cells were routinely screened for the presence of mycoplasma (MycoAlert, Cambrex Bio Science, Baltimore, Md.). For growth inhibition assays, cells were plated and allowed to proliferate for 24 hours. […] Cell viability was assayed using the Cell Titer-Glo reagent (Promega Corp., Madison, Wis.). Proliferation Assay. […] The basis of the assay is a luminescent quantitation of ATP present in a cell culture plate well. In essence, the greater the number of viable cells in the well, the greater the level of ATP present. The assay utilizes a substrate that binds ATP to produce a luminescent signal, which can be read on a luminometer. Unless otherwise noted, the manufacturer's instructions were followed exactly. Briefly, on Day 1, cells were plated in 120 μl of 10% serum-containing growth media at a density of 4000 cells/well in a white polystyrene 96 well assay plate. […] After 72 h incubation with the inhibitor, the cells were assayed. Results were calculated as a fraction of the DMSO controlled cells.

[1] = tested on: MDAH-2774 ovarian tumor cells; experiment: Caspase 3/7 Glo apoptosis assay; format: cell-based, human; details: with 10 nM pactitaxel
Procedure: Measurement of apoptosis: Induction of apoptosis as measured by increased Caspase 3/7 activity was determined using the Caspase 3/7 Glo assay (Promega Corporation, Madison, Wis.). Cell lines were seeded at a density of 3000 cells per well in a 96-well plate. 24 hours after plating, cells were dosed with compounds. The signal for Caspase 3/7 Glo was determined 24 hours after dosing. The caspase 3/7 activity was normalized to cell number per well, using a parallel plate treated with Cell Titer Glo (Promega Corporation, Madison, Wis.). Signal for each well was normalized using the following formula: Caspase 3/7 Glo luminescence units/Cell Titer Glo fraction of DMSO control. All graphs were generated using PRISM® software (Graphpad Software, San Diego, Calif.).

A2780 = experiment: Cell Titer Glo proliferation assay, 88 cell line panel; format: cell-based, human; details: A2780 ovarian cancer, PTEN mutant, 72 hours
Procedure: (§2) Proliferation Assay. […] The basis of the assay is a luminescent quantitation of ATP present in a cell culture plate well. In essence, the greater the number of viable cells in the well, the greater the level of ATP present. The assay utilizes a substrate that binds ATP to produce a luminescent signal, which can be read on a luminometer. Unless otherwise noted, the manufacturer's instructions were followed exactly. Briefly, on Day 1, cells were plated in 120 μl of 10% serum-containing growth media at a density of 4000 cells/well in a white polystyrene 96 well assay plate. […] After 72 h incubation with the inhibitor, the cells were assayed. Results were calculated as a fraction of the DMSO controlled cells.
(§3) This included cell lines representing ovarian cancer (A2780 and EFO-27), SCCHN (HSC-4), SCLC (NCI-H446), CRC (KM12), lymphoma (MC116), breast cancer (BT549 and HCC70), and prostate cancer (PC3).

KM12 = experiment: as above; format: cell-based, human; details: KM12 CRC, PTEN mutant, 72 hours
Procedure: as §2, §3

HCC70 = experiment: as above; format: cell-based, human; details: HCC70 breast cancer, PTEN mutant, 72 hours
Procedure: as §2, §3

BT549 = experiment: as above; format: cell-based, human; details: BT549 breast cancer, PTEN mutant, 72 hours
Procedure: as §2, §3

EFO-27 = experiment: as above; format: cell-based, human; details: EFO-27 ovarian cancer, PTEN mutant, 72 hours
Procedure: as §2, §3

NCI-H446 = experiment: as above; format: cell-based, human; details: NCI-H446 SCLC, PTEN mutant, 72 hours
Procedure: as §2, §3

MC116 = experiment: as above; format: cell-based, human; details: MC116 lymphoma, PTEN mutant, 72 hours
Procedure: as §2, §3

HSC-4 = experiment: as above; format: cell-based, human; details: HSC-4 SCCHN, PTEN mutant, 72 hours
Procedure: as §2, §3

PC3 = experiment: as above; format: cell-based, human; details: PC3 prostate cancer, PTEN mutant, 72 hours
Procedure: as §2, §3

Colo205 tumors = experiment: Tumor xenograft study; details: treatment in vivo for 10-14 days
FaDu = experiment: Cell Titer Glo proliferation assay; format: cell-based; details: Homo sapiens, read-out: EC50 in culture in vitro
From the text: as §1

SKNAS = experiment: Cell Titer Glo proliferation assay; format: cell-based; details: Homo sapiens, SK-N-AS, read-out: EC50 in culture in vitro
From the text: as §1

[2] = tested on: broad panel (n=116) of additional RTKs and other protein kinases; details: at 1 μM; cited from earlier work
H295R tumors = experiment: Tumor xenograft study; details: treatment in vivo for 10-14 days

SMILES: C[C@]1(O)C[C@@H](c2nc(-c3ccc4ccc(-c5ccccc5)nc4c3)c3c(N)nccn32)C1 [OSI-906, cis-3-[8-amino-1-(2-phenyl-quinolin-7-yl)-imidazo[1,5-a]pyrazin-3-yl]-1-methyl-cyclobutanol]
- sensitivity to OSI-906 (OVK18): insensitive (insensitive (EC50>10 μM))
- induction of apoptosis [1]: enhances the induction of apoptosis
- sensitivity to OSI-906 (A2780): insensitive (insensitive (EC50>10 μM))
- sensitivity to OSI-906 (KM12): insensitive (insensitive (EC50>10 μM))
- sensitivity to OSI-906 (HCC70): insensitive (insensitive (EC50>10 μM))
- sensitivity to OSI-906 (BT549): insensitive (insensitive (EC50>10 μM))
- sensitivity to OSI-906 (EFO-27): insensitive (insensitive (EC50>10 μM))
- sensitivity to OSI-906 (NCI-H446): insensitive (insensitive (EC50>10 μM))
- sensitivity to OSI-906 (MC116): insensitive (insensitive (EC50>10 μM))
- sensitivity to OSI-906 (HSC-4): insensitive (insensitive (EC50>10 μM))
- sensitivity to OSI-906 (PC3): insensitive (insensitive (EC50>10 μM))
- % TGI (tumor growth inhibition) (Colo205 tumors): 90%
- EC50 (FaDu): > 10 µM
- EC50 (SKNAS): < 1 µM
- inhibition of additional kinases [2]: < 50%
- % TGI (tumor growth inhibition) (H295R tumors): 85%
